Here are results for 5 molecules from patent US20090018642A1, “Methods to improve the stability of celluar adhesive proteins and peptides” (BOSTON SCIENTIFIC SCIMED, INC., priority 2007, published 2009).

For assay [1] the following is noted: on the order of; cited from earlier work.
How the values of assay [2] were obtained: A blank solution with PBS only was also prepared.
8 mm Liberte WH stents were placed in the wells of a 48-well polystyrene plate and 240 μl of each peptide concentration (including the blank) was then added to each well. The plates were then incubated for at least 1 hr at room temperature (RT) with gentle shaking (100 rpm) to allow for binding to occur. Excess peptide solution was removed and discard using a micropipette.
The stents were then washed 3 times with 1.5 ml PBS-Tween, with approximately 30 sec of shaking at 150 rpm between washes. 1.5 ml of 1% bovine serum albumin (BSA) in PBS (blocking solution) was then added to each stent and incubated for 1 hr at RT with gentle shaking (100 rpm) to allow for blocking to occur. After 1 hr, excess blocking solution was removed and discarded with a micropipette. The stent was then washed 3 times with 1.5 ml PBS-Tween using the wash method described above.
300 μl of Streptavidin-AP (alkaline phosphatase) solution was added to each stent at 1/1000 in TBS+1% BSA and incubated for 30 min at room temperature with gentle shaking (100 rpm). Excess Streptavidin solution was then removed and discarded. The stents were then washed 2 times with 1.5 ml PBS-Tween and then transferred to a set of new wells on the same plate using tweezers. Once the stents were moved, they were then washed once more with 1.5 ml PBS-Tween. 300 μl of the chromogen p-nitrophenyl phosphate (PNPP) was added to each stent in the 48 well plate. The plate was then placed on the shaker platform and incubated for 5 minutes at 100 rpm to allow color development to occur. 10 μl of sodium hydroxide (NaOH) was then added to the wells of a 96 well tissue culture plate. To stop the color development, 100 μl of the solution in each stent containing well was transferred to a well containing NaOH in the 96 well plate.
Optical density (OD) was determined by reading the 96 well plate in a plate reader (Spectramax Plus, Molecular Devices) at 405 nm in endpoint mode. The measured OD for the blank was subtracted from the ODs for all other solutions. The resulting ODs were plotted (y-axis) vs. concentration (μM) (log x-axis).
The OD at 5 min (405 nm) was measured at 1 hr, 4 hr and 24 hrs as described above.
The OD at 5 min (405 nm) was measured and the EC50 was determined as described above.

The nature of assay [3]: Langmuir isotherm, quartz crystal microbalance with dissipation (QCM-D). In kind it is binding. The procedure: Stainless Steel Quartz Crystals (Q-Sense, QSX 304) were cleaned with a UV/Ozone treatment (Bioforce, UV […], Model No. […] The crystals were then immersed in a 2% sodium dodecyl sulfate (SDS) (MPI, Product No. 811036) in dH2O solution for 5 minutes, washed thoroughly with dH2O, N2 dried, and UV/Ozone treated for an additional 10 minutes. Surface Characterization: The QCM-D measurements (Q-Sense E4) were made with a solution flow rate of 100 μL per minute. The experiment was temperature controlled at 25° C. In the experiments, four samples were tested at one time using the QCM-D. Each experiment included running PBS for approximately 10 minutes to establish a stable baseline. The peptide solutions were then added at various concentrations until the change in frequency was 2 Hz per 30 minutes or less. The final step was to wash with PBS for 30 minutes or until the change in frequency was 2 Hz per 30 minutes or less. For analysis purposes (Sauerbrey model, Q-Tools), generally the third overtone was used from each sample.

In assay [4] the test system is human coronary artery endothelial cells (HCAEC). Briefly: HCAEC migration on coated stainless steel strips. In kind it is cell-based. Conditions: strips pre-coated with 10 μM peptide; 48 hours; uncoated stainless steel normalized to 1; p<0.01. From the text:
Migration and proliferation of endothelial cells on biomaterials can impact the rates of reendothelization and angiogenesis, which can be important during the development and success of implantable medical devices. In this experiment, the effect of a surface-binding cell adhesion polypeptide on the motility of human coronary artery endothelial cells (HCAEC) on a stainless steel substrate was examined in vitro. The surface-binding cell adhesion polypeptide used in this example included DOPA as a surface binding moiety, a (ALA-Aib)3 linker, and the recognition sequence for laminin receptors (YIGSR) as the cell adhesion polypeptide [(DOPA)2-(ALA-Aib)3-YIGSR-OH, hereinafter PEPTIDE-1] (synthesized at the MGH Peptide/Protein Core Facility, Harvard Medical School, Boston, Mass.).
Human coronary artery endothelial cells (HCAEC, available from Cell Applications, Inc., San Diego, Calif.) were used in this study. The substrates were sterile stainless steel strips [3.5″×0.308″×0.031″] or sterile stainless steel strips coated with PEPTIDE-1.
Collagen gels were prepared using the following protocol: One 10 mg vial of high concentration (HC) Type I collagen (Rat tail, from BD Biosciences, San Jose, Calif.) was diluted with distilled sterile H2O to a final volume of 38 ml and mixed thoroughly without introducing bubbles (by pipetting up and down). […]

Read-outs that look alike come from different tables or passages of the source.

On to `N[C@@H](Cc1ccc(O)c(O)c1)C(=O)O` [DOPA, 3,4 dihydroxyphenylalanine], for which the binding constant in assay [1] is recorded as ~10^16.
As for “(DOPA)2-(ALA-Aib)3-RIGSY-(Biotin)-OH [PEPTIDE-2]”, the EC50 is 310 nM in assay [2] (incubation time study, 1 hr); 300 nM in assay [2] (incubation time study, 4 hr); 270 nM in assay [2] (incubation time study, 24 hr); ~370 nM in assay [2] (read-out: half-maximal concentration (EC50), concentration range study, coating 1 hour at room temperature). Moreover, the “affinity for stainless steel in comparison to BSA” value in assay [3] (greater affinity than non-specific protein BSA) was “approx. 3 orders of magnitude”.
For the molecule (DOPA)2-(ALA-Aib)3-YIGSR-OH [PEPTIDE-1], the “HCAEC migration compared to stainless steel alone” value in assay [4] was 1.7 fold.
(Dopa)2-(Ala-Aib)3-RIGSY-OH [PEPTIDE-3] returned an EC50 in assay [3] (QCM-D, 25° C.) of 280 nM. Besides, in assay [3] (QCM-D, 25° C., Langmuir isotherm fit), the Kd (as a rule, the equilibrium constant for the complex coming apart) worked out at 260 nM.
As for “bovine serum albumin [BSA, reference compound]”, the EC50 in assay [3] (QCM-D, 25° C.) was ≥ 100000 nM.
